# Assay results reported in publication PMC3320615, “β-Microseminoprotein Endows Post Coital Seminal Plasma with Potent Candidacidal Activity by a Calcium- and pH-Dependent Mechanism” (PLoS Pathogens, 2012).
# Tests used:
# [1] = test system: Candida albicans ATCC 90028; experiment: CFU assay with C. albicans; assay type: cell-based; conditions: for Estimate (difference between means of log values): control - treatment
# From the text: Candida albicans strains: ATCC 90028, CAF-1-2, SC5814, BM4f35II68, vaginal clinical isolates from Dept. of Clincal Microbiology, Skåne University Hospital, SO_303369 and SO_503471. Candida parapsilosis strains: ATCC 90018, BD1800, BD17837, and BM24/68/09. Candida glabrata strains: ATCC 90030, clinical isolates from Dept. of Clincal Microbiology, Skåne University Hospital, SO_3336, SO_3400 and SO_503413. All strains were inoculated from frozen culture and grown in Yeast extract-Peptone-Dextrose (YPD) (Sigma) and on Sabourand Dextrose Broth (SAB) (Difco) plates at 30°C with 5% (v/v) CO2. If not otherwise stated, ATCC 90028 was used for candidacidal experiments.
# Candida albicans was grown over night, washed, and resuspended in 10 mM Tris, 5 mM glucose, pH 7.4 or pH 4. Approximately 4×10^3 to 10^4 CFU of C. albicans were incubated with the test substance in low or neutral pH buffer for 4 h at 37°C. After incubation, the suspension was diluted and plated. Colonies were counted after two days incubation of the plates at 30°C. Bacteria from overnight cultures were inoculated in fresh medium and grown for 3 h, washed in 10 mM Tris, 5 mM glucose pH 7.4. Approximately 8×10^4 CFU were incubated with sample in 10 mM Tris, 5 mM glucose pH 7.4 or pH 4 for 1 h at 37°C, diluted, plated and incubated over night at 37°C and the colonies counted.
# Statistical analysis was performed using SAS 9.2 software (SAS Institute, Cary, NC). Colony counts were log transformed. In order to choose the statistical method, interactions between the Treatment and Experiment were investigated. Treatments were screened by doing pair wise comparisons of each treatment to a control. Statistical tests used for the comparisons included MIXED procedure and LSMEANS statement. All tests where P-value<.05 were considered to indicate statistical significance. P-values were not adjusted for the multiple comparisons.
# “Estimate” is the estimate of the difference between means of log values of treatment 1 and treatment 2
# [2] = Liposome leakage (carboxyfluorescein release); assay type: biochemical; conditions: % ± SD of leakage with Triton X-100, CF fluorescence 520 nm, 37°C, at least triplicate
# Procedure: Subsequently, buffer (10 mM Tris, pH 7.4) was added together with 0.1 M carboxyfluorescein (CF) (Sigma, St Louis, MO). After hydration, the lipid mixture was subjected to eight freeze-thaw cycles consisting of freezing in liquid nitrogen and heating to 60°C. Unilamellar liposomes of about Ø140 nm were generated by multiple extrusions through polycarbonate filters (pore size 100 nm) mounted in a […] (Avestin, Ottawa, Canada) at 22°C. Untrapped CF was then removed by two gel filtrations (Sephadex G-50) at 22°C, with Tris buffer as eluent. CF release was determined by monitoring the emitted fluorescence at 520 nm from liposome dispersions (10 mM lipid in 10 mM Tris). An absolute leakage scale was obtained by disrupting the liposomes at the end of the experiment through addition of 0.8 mM Triton X100 (Sigma, St Louis, MO), causing 100% release and dequenching of CF. Although calcein is frequently used for pH-dependent leakage studies, the high charge of this dye has been noted to influence its leakage behavior in the presence of highly cationic peptides. Instead, therefore, CF was used as a leakage marker at both pH 6.0 and 7.4, avoiding pH-dependent fluorescence effects through neutralization prior to probing the limiting leakage in case of pH 6.0 leakage. Throughout, a SPEX-fluorolog 1650 0.22-m double spectrometer (SPEX Industries, Edison, NJ) was used for the liposome leakage assay. Measurements were performed in at least triplicate at 37°C.
sequence,measurement,setting,value
"RIFKKEDCKYI [MSP66–76, eleven residues at the very tip of the loop (residue 66–76)]",Estimate (difference between means of log values),"[1]; 50 µM + 50 µM EDTA, pH 7.4, + 50 µM calcium chloride, experiment 1",0.4123
same,Estimate (difference between means of log values),"[1]; 50 µM + 50 µM EDTA, pH 7.4, + 50 µM calcium chloride, experiment 2",-0.3545
same,Estimate (difference between means of log values),"[1]; 50 µM + 50 µM EDTA, pH 7.4, + 50 µM calcium chloride, experiment 3",-0.7827
same,Estimate (difference between means of log values),"[1]; 50 µM + 50 µM EDTA, pH 7.4, + 50 µM calcium chloride, experiment 4",0.2633
same,Estimate (difference between means of log values),"[1]; 50 µM + 50 µM EDTA, pH 7.4, + 50 µM calcium chloride, experiment 5",0.02251
same,Estimate (difference between means of log values),"[1]; 50 µM + 50 µM EDTA, pH 7.4, + 75 µM calcium chloride, experiment 1",0.2228
same,Estimate (difference between means of log values),"[1]; 50 µM + 50 µM EDTA, pH 7.4, + 75 µM calcium chloride, experiment 2",-0.4921
same,Estimate (difference between means of log values),"[1]; 50 µM + 50 µM EDTA, pH 7.4, + 75 µM calcium chloride, experiment 3",-0.1876
same,Estimate (difference between means of log values),"[1]; 50 µM + 50 µM EDTA, pH 7.4, + 75 µM calcium chloride, experiment 4",-0.2469
same,Estimate (difference between means of log values),"[1]; 50 µM + 50 µM EDTA, pH 7.4, + 75 µM calcium chloride, experiment 5",-0.2312
same,Estimate (difference between means of log values),"[1]; 50 µM + 50 µM EDTA, pH 7.4, + 100 µM calcium chloride, experiment 1",0.07455
same,Estimate (difference between means of log values),"[1]; 50 µM + 50 µM EDTA, pH 7.4, + 100 µM calcium chloride, experiment 2",-0.1459
same,Estimate (difference between means of log values),"[1]; 50 µM + 50 µM EDTA, pH 7.4, + 100 µM calcium chloride, experiment 3",-0.4793
same,Estimate (difference between means of log values),"[1]; 50 µM + 50 µM EDTA, pH 7.4, + 100 µM calcium chloride, experiment 4",-0.1979
same,Estimate (difference between means of log values),"[1]; 50 µM + 50 µM EDTA, pH 7.4, + 100 µM calcium chloride, experiment 5",-0.3209
same,Estimate (difference between means of log values),"[1]; 50 µM + 50 µM EDTA, pH 7.4, + 200 µM calcium chloride, experiment 1",0.4296
same,Estimate (difference between means of log values),"[1]; 50 µM + 50 µM EDTA, pH 7.4, + 200 µM calcium chloride, experiment 2",-0.6341
same,Estimate (difference between means of log values),"[1]; 50 µM + 50 µM EDTA, pH 7.4, + 200 µM calcium chloride, experiment 3",-0.7050
same,Estimate (difference between means of log values),"[1]; 50 µM + 50 µM EDTA, pH 7.4, + 200 µM calcium chloride, experiment 4",-0.2560
same,Estimate (difference between means of log values),"[1]; 50 µM + 50 µM EDTA, pH 7.4, + 200 µM calcium chloride, experiment 5",0.04894
same,Estimate (difference between means of log values),"[1]; 50 µM + 50 µM EDTA, pH 7.4, no calcium, experiment 1",5.2769
same,Estimate (difference between means of log values),"[1]; 50 µM + 50 µM EDTA, pH 7.4, no calcium, experiment 2",4.2266
same,Estimate (difference between means of log values),"[1]; 50 µM + 50 µM EDTA, pH 7.4, no calcium, experiment 3",2.8351
same,Estimate (difference between means of log values),"[1]; 50 µM + 50 µM EDTA, pH 7.4, no calcium, experiment 4",4.2317
same,Estimate (difference between means of log values),"[1]; 50 µM + 50 µM EDTA, pH 7.4, no calcium, experiment 5",5.0824
same,Estimate (difference between means of log values),"[1]; 50 µM, no EDTA, pH 4, + 50 µM calcium chloride, experiment 1",2.5872
same,Estimate (difference between means of log values),"[1]; 50 µM, no EDTA, pH 4, + 50 µM calcium chloride, experiment 2",2.7886
same,Estimate (difference between means of log values),"[1]; 50 µM, no EDTA, pH 4, + 50 µM calcium chloride, experiment 3",1.3256
same,Estimate (difference between means of log values),"[1]; 50 µM, no EDTA, pH 4, + 50 µM calcium chloride, experiment 4",2.0744
same,Estimate (difference between means of log values),"[1]; 50 µM, no EDTA, pH 4, + 50 µM calcium chloride, experiment 5",1.7552
same,Estimate (difference between means of log values),"[1]; 50 µM, no EDTA, pH 4, + 75 µM calcium chloride, experiment 1",2.5170
same,Estimate (difference between means of log values),"[1]; 50 µM, no EDTA, pH 4, + 75 µM calcium chloride, experiment 2",1.9220
same,Estimate (difference between means of log values),"[1]; 50 µM, no EDTA, pH 4, + 75 µM calcium chloride, experiment 3",-0.3426
same,Estimate (difference between means of log values),"[1]; 50 µM, no EDTA, pH 4, + 75 µM calcium chloride, experiment 4",1.5746
same,Estimate (difference between means of log values),"[1]; 50 µM, no EDTA, pH 4, + 75 µM calcium chloride, experiment 5",1.0684
same,Estimate (difference between means of log values),"[1]; 50 µM, no EDTA, pH 4, + 100 µM calcium chloride, experiment 1",0.6973
same,Estimate (difference between means of log values),"[1]; 50 µM, no EDTA, pH 4, + 100 µM calcium chloride, experiment 2",1.1772
same,Estimate (difference between means of log values),"[1]; 50 µM, no EDTA, pH 4, + 100 µM calcium chloride, experiment 3",0.01412
same,Estimate (difference between means of log values),"[1]; 50 µM, no EDTA, pH 4, + 100 µM calcium chloride, experiment 4",1.0688
same,Estimate (difference between means of log values),"[1]; 50 µM, no EDTA, pH 4, + 100 µM calcium chloride, experiment 5",0.1005
same,Estimate (difference between means of log values),"[1]; 50 µM, no EDTA, pH 4, + 200 µM calcium chloride, experiment 1",1.0661
same,Estimate (difference between means of log values),"[1]; 50 µM, no EDTA, pH 4, + 200 µM calcium chloride, experiment 2",0.6082
same,Estimate (difference between means of log values),"[1]; 50 µM, no EDTA, pH 4, + 200 µM calcium chloride, experiment 3",-0.8572
same,Estimate (difference between means of log values),"[1]; 50 µM, no EDTA, pH 4, + 200 µM calcium chloride, experiment 4",0.6184
same,Estimate (difference between means of log values),"[1]; 50 µM, no EDTA, pH 4, + 200 µM calcium chloride, experiment 5",-1.1924
same,Estimate (difference between means of log values),"[1]; 50 µM, no EDTA, pH 4, no calcium, experiment 1",5.4425
same,Estimate (difference between means of log values),"[1]; 50 µM, no EDTA, pH 4, no calcium, experiment 2",4.7863
same,Estimate (difference between means of log values),"[1]; 50 µM, no EDTA, pH 4, no calcium, experiment 3",3.5454
same,Estimate (difference between means of log values),"[1]; 50 µM, no EDTA, pH 4, no calcium, experiment 4",4.0909
same,Estimate (difference between means of log values),"[1]; 50 µM, no EDTA, pH 4, no calcium, experiment 5",3.8004
same,Estimate (difference between means of log values),"[1]; 140 µM + 0.5 mM calcium, pH 4, experiment 1",1.0371
same,Estimate (difference between means of log values),"[1]; 140 µM + 0.5 mM calcium, pH 4, experiment 2",0.7970
same,Estimate (difference between means of log values),"[1]; 140 µM + 0.5 mM calcium, pH 4, experiment 3",-0.5619
same,Estimate (difference between means of log values),"[1]; 140 µM + 0.5 mM calcium, pH 4, experiment 4",0.4135
same,Estimate (difference between means of log values),"[1]; 140 µM + 0.5 mM magnesium, pH 4, experiment 1",5.4081
same,Estimate (difference between means of log values),"[1]; 140 µM + 0.5 mM magnesium, pH 4, experiment 2",4.1263
same,Estimate (difference between means of log values),"[1]; 140 µM + 0.5 mM magnesium, pH 4, experiment 3",2.8985
same,Estimate (difference between means of log values),"[1]; 140 µM + 0.5 mM magnesium, pH 4, experiment 4",5.0596
same,Estimate (difference between means of log values),"[1]; 140 µM, pH 4, experiment 1",5.5432
same,Estimate (difference between means of log values),"[1]; 140 µM, pH 4, experiment 2",4.1263
same,Estimate (difference between means of log values),"[1]; 140 µM, pH 4, experiment 3",2.8985
same,Estimate (difference between means of log values),"[1]; 140 µM, pH 4, experiment 4",4.7326
same,Calcium concentration that completely inhibited the antifungal activity,[1]; neutral pH (MSP66–76 with equimolar EDTA),50 µM
same,Liposome leakage,"[2]; pH 6.0, +EDTA, DOPC/ergosterol liposomes",41±9%
same,Liposome leakage,"[2]; pH 6.0, without EDTA, DOPC/ergosterol liposomes",31±6%
same,Liposome leakage,"[2]; pH 7.4, +EDTA",16±7%
same,Liposome leakage,"[2]; pH 7.4, without EDTA",29±6%
